Values joined by “and” are separate entries in the source; they are usually repeats but may differ in a detail not shown here. Equal values may be shown once. Read-outs that look alike come from different tables or passages of the source.
Tests used:
CYP2B6 = target: T1, CYP2B6 (Homo sapiens, UniProt P20813); test: in vitro; type: in vitro ADME; parameters: purchased BD Biosciences Discovery Labware (Bedford, MA); host or cells: baculovirus-infected insect cells; settings: pH 7.4, Carbofuran metabolic pathway, rCYP2B6
T1 sequence (P20813 1-491): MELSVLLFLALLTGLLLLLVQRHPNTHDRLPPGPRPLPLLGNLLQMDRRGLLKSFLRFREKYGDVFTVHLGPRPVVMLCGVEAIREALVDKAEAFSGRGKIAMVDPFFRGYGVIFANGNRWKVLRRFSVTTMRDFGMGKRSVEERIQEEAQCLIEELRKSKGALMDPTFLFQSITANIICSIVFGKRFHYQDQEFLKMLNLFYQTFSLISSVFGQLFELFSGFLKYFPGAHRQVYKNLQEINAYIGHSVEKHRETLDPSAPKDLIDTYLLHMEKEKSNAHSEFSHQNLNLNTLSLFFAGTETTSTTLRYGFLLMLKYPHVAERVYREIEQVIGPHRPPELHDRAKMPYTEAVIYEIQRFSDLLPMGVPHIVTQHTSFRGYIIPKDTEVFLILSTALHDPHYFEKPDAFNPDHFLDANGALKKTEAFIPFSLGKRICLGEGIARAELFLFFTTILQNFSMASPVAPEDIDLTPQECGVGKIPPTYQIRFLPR
Method: Furathiocarb was incubated with recombinant CYPs (rCYP). The incubation mixture contained rCYPs (50 pmol CYP per ml), 100 µM furathiocarb, and 1 mM NADPH in 200 µl 0.1 M phosphate buffer (pH 7.4). Incubation procedures and chromatographic separation are presented in Supplementary materials.
(§1) Enzyme kinetic parameters of both the microsomal samples and rCYP enzymes were measured. The incubation mixture contained furathiocarb (2.5, 10, 25, 50, 150 and 300 µM). Incubation times were 20 and 30 min for microsomal samples and rCYPs, respectively. Otherwise incubation mixtures and methods were the same as in metabolite identification. The rate of sum of furathiocarb metabolite formation was linear at least up to 0.15 mg protein/ml and 30 min incubation time in the standard experimental conditions.
To measure the main furathiocarb metabolites of recombinantly expressed CYP enzymes (rCYPs), the standard incubation mixture (200 µl) contained 0.1 M phosphate buffer (pH 7.4), 1 mM NADPH, 100 µM […], and rCYPs (50 pmol CYP per ml). Incubations were carried out according to the manufacturer’s instructions. Shortly, the reaction was started by adding recombinant enzymes to the preincubated eaction mixture (2 min at +37 ◦C), mixed gently and incubated for 30 min at +37 ◦C in an incubator block without agitation. […]

[1] = Furathiocarb biotransformation kinetics in individual human hepatic microsomes (10 donors); type: in vitro ADME; settings: for Km: human
Method: The incubation mixture (ﬁnal volume of 200 µl of 0.1 M phosphate buffer) contained 50 and 100 µM furathiocarb, 0.15 mg pooled liver microsomal protein (n = 10), and 1 mM NADPH. The reaction was initiated by NADPH after a 2 min pre-incubation at + 37 °C and was incubated for 30 min at + 37 °C. The reaction stopped with ice-cold acetonitrile containing an internal standard.
as §1
The standard incubation mixture contained 50 and 100 µM furathiocarb, 0.15 mg pooled liver microsomal protein (n = 10), and 1 mM NADPH in a ﬁnal volume of 200 µl of 0.1 M phosphate buffer (pH 7.4). Furathiocarb was prepared once a week in dimethylsulfoxide (DMSO; ﬁnal amount in the reaction medium 1.0%). After a 2-min incubation at +37 ◦C in a shaking incubator block, the reaction was started by adding NADPH. The mixture was incubated at +37 ◦C for 30 min and the reaction was stopped with 600 µl of ice-cold acetonitrile containing an internal standard. All incubations were carried out in triplicate.

CCCCOC(=O)N(C)SN(C)C(=O)Oc1cccc2c1OC(C)(C)C2 [furathiocarb, Furathiocarb]
Km at 30 min (CYP2B6): 9.7 ± 3.9 µM | CLint, sum of carbofuran metabolic pathway ([1]; HLM20): 310.4 µL (mg protein min) | CLint, sum of furathiocarb oxidation pathways ([1]; HLM20): 12.63 µL (mg protein min) | Vmax, sum of carbofuran metabolic pathway ([1]; HLM20): 19.6 ± 1.7 nmol (mg protein min) | Vmax, sum of furathiocarb oxidation pathways ([1]; HLM20): 4.3 ± 0.8 nmol (mg protein min) | carbofuran pathway / oxidation pathways (CLint ratio) ([1]; HLM20): 24.5 fold | CLint, sum of carbofuran metabolic pathway ([1]; HLM21): 339.0 µL (mg protein min) | CLint, sum of furathiocarb oxidation pathways ([1]; HLM21): 9.22 µL (mg protein min) | Vmax, sum of carbofuran metabolic pathway ([1]; HLM21): 22.6 ± 2.5 nmol (mg protein min) | Vmax, sum of furathiocarb oxidation pathways ([1]; HLM21): 4.1 ± 1.1 nmol (mg protein min) | carbofuran pathway / oxidation pathways (CLint ratio) ([1]; HLM21): 36.8 fold | CLint, sum of carbofuran metabolic pathway ([1]; HLM22): 619.7 µL (mg protein min) | Vmax, sum of carbofuran metabolic pathway ([1]; HLM22): 44.5 nmol/ (mg protein min) and 44.5 ± 5.1 nmol/ (mg protein min) | CLint, sum of carbofuran metabolic pathway ([1]; HLM23): 348.6 µL (mg protein min) | CLint, sum of furathiocarb oxidation pathways ([1]; HLM23): 13.48 µL (mg protein min) | Vmax, sum of carbofuran metabolic pathway ([1]; HLM23): 17.4 ± 1.6 nmol (mg protein min) | Vmax, sum of furathiocarb oxidation pathways ([1]; HLM23): 3.5 ± 7.3 nmol (mg protein min) | carbofuran pathway / oxidation pathways (CLint ratio) ([1]; HLM23): 25.9 fold | CLint, sum of carbofuran metabolic pathway ([1]; HLM24): 404.5 µL (mg protein min) | CLint, sum of furathiocarb oxidation pathways ([1]; HLM24): 12.25 µL (mg protein min) | Vmax, sum of carbofuran metabolic pathway ([1]; HLM24): 21.9 ± 2.1 nmol (mg protein min) | Vmax, sum of furathiocarb oxidation pathways ([1]; HLM24): 5.1 ± 1.3 nmol (mg protein min) | carbofuran pathway / oxidation pathways (CLint ratio) ([1]; HLM24): 33.0 fold | CLint, sum of carbofuran metabolic pathway ([1]; HLM28): 779.6 µL (mg protein min) | CLint, sum of furathiocarb oxidation pathways ([1]; HLM28): 6.75 µL (mg protein min) | Vmax, sum of carbofuran metabolic pathway ([1]; HLM28): 43.6 ± 4.7 nmol (mg protein min) | Vmax, sum of furathiocarb oxidation pathways ([1]; HLM28): 11.5 nmol/ (mg protein min) and 11.5 ± 6.4 nmol/ (mg protein min) | carbofuran pathway / oxidation pathways (CLint ratio) ([1]; HLM28): 115 fold and 115.4 fold | CLint, sum of carbofuran metabolic pathway ([1]; HLM29): 378.2 µL (mg protein min) | CLint, sum of furathiocarb oxidation pathways ([1]; HLM29): 10.73 µL (mg protein min) | Vmax, sum of carbofuran metabolic pathway ([1]; HLM29): 24.3 ± 2.5 nmol (mg protein min) | Vmax, sum of furathiocarb oxidation pathways ([1]; HLM29): 5.3 ± 1.4 nmol (mg protein min) | carbofuran pathway / oxidation pathways (CLint ratio) ([1]; HLM29): 35.2 fold | CLint, sum of carbofuran metabolic pathway ([1]; HLM30): 701.2 µL (mg protein min) | CLint, sum of furathiocarb oxidation pathways ([1]; HLM30): 10.99 µL (mg protein min) | Vmax, sum of carbofuran metabolic pathway ([1]; HLM30): 18.2 ± 1.8 nmol (mg protein min) | Vmax, sum of furathiocarb oxidation pathways ([1]; HLM30): 5.1 ± 1.3 nmol (mg protein min) | carbofuran pathway / oxidation pathways (CLint ratio) ([1]; HLM30): 64 fold and 63.8 fold | CLint, sum of carbofuran metabolic pathway ([1]; HLM31): 244 µl/ (mg protein min) and 244.3 µl/ (mg protein min) | CLint, sum of furathiocarb oxidation pathways ([1]; HLM31): 7.0 µl/ (mg protein min) and 7.00 µl/ (mg protein min) | Vmax, sum of carbofuran metabolic pathway ([1]; HLM31): 15.5 nmol/ (mg protein min) and 15.5 ± 1.1 nmol/ (mg protein min) | Vmax, sum of furathiocarb oxidation pathways ([1]; HLM31): 1.7 nmol/ (mg protein min) and 1.7 ± 0.3 nmol/ (mg protein min) | carbofuran pathway / oxidation pathways (CLint ratio) ([1]; HLM31): 34.9 fold | CLint, sum of carbofuran metabolic pathway ([1]; HLM32): 399.9 µL (mg protein min) | CLint, sum of furathiocarb oxidation pathways ([1]; HLM32): 13.04 µL (mg protein min) | Vmax, sum of carbofuran metabolic pathway ([1]; HLM32): 15.5 nmol/ (mg protein min) and 15.5 ± 1.4 nmol/ (mg protein min) | Vmax, sum of furathiocarb oxidation pathways ([1]; HLM32): 3.7 ± 0.6 nmol (mg protein min) | carbofuran pathway / oxidation pathways (CLint ratio) ([1]; HLM32): 30.6 fold | Km ([1]; pH 7.4, HLM20, read-out: Km, sum of carbofuran metabolic pathway): 63.2 ± 16.3 µM | Km ([1]; pH 7.4, HLM20, read-out: Km, sum of furathiocarb oxidation pathways): 343 ± 128 µM | Km ([1]; pH 7.4, HLM21, read-out: Km, sum of carbofuran metabolic pathway): 66.7 ± 20.6 µM | Km ([1]; pH 7.4, HLM21, read-out: Km, sum of furathiocarb oxidation pathways): 453 ± 215 µM | Km ([1]; pH 7.4, HLM22, read-out: Km, sum of carbofuran metabolic pathway): 71.8 ± 21.7 µM | Km ([1]; pH 7.4, HLM23, read-out: Km, sum of carbofuran metabolic pathway): 50 ± 14.1 µM | Km ([1]; pH 7.4, HLM23, read-out: Km, sum of furathiocarb oxidation pathways): 260 ± 117 µM | Km ([1]; pH 7.4, HLM24, read-out: Km, sum of carbofuran metabolic pathway): 54.3 ± 16.1 µM | Km ([1]; pH 7.4, HLM24, read-out: Km, sum of furathiocarb oxidation pathways): 410 ± 197 µM | Km ([1]; pH 7.4, HLM28, read-out: Km, sum of carbofuran metabolic pathway): 55.8 ± 18 µM | Km ([1]; pH 7.4, HLM28, read-out: Km, sum of furathiocarb oxidation pathways): 1710 ± 852 µM | Km ([1]; pH 7.4, HLM29, read-out: Km, sum of carbofuran metabolic pathway): 64.2 ± 18.9 µM | Km ([1]; pH 7.4, HLM29, read-out: Km, sum of furathiocarb oxidation pathways): 495 ± 237 µM | Km ([1]; pH 7.4, HLM30, read-out: Km, sum of carbofuran metabolic pathway): 25.9 ± 9.5 µM | Km ([1]; pH 7.4, HLM30, read-out: Km, sum of furathiocarb oxidation pathways): 456 ± 208 µM | Km ([1]; pH 7.4, HLM31, read-out: Km, sum of carbofuran metabolic pathway): 63.3 ± 13.4 µM | Km ([1]; pH 7.4, HLM31, read-out: Km, sum of furathiocarb oxidation pathways): 239 ± 79.5 µM | Km ([1]; pH 7.4, HLM32, read-out: Km, sum of carbofuran metabolic pathway): 38.8 ± 11.3 µM | Km ([1]; pH 7.4, HLM32, read-out: Km, sum of furathiocarb oxidation pathways): 280 ± 102 µM | Ratio carbofuran metabolic pathway / furathiocarb oxidation pathway ([1]; range in 10-donor panel of hepatic microsomes): 24- to 115 fold

Reference: publication PMC8989696, “Characterization of furathiocarb metabolism in in-vitro human liver microsomes and recombinant cytochrome P450 enzymes” (Toxicology Reports, 2022)
